Data taken from patent publication US20210002231A1 (Centre National de la Recherche Scientifique, priority 2018, published 2021).
Read-outs that look alike come from different tables or passages of the source. Residues, ends and D or L forms follow the SMILES beside them.

Columns and labels:
human NOPr = target: T1, human NOPr (Homo sapiens, UniProt P41146); test: Glo-sensor cAMP assay; type: cell-based
T1 construct: expressed in transfected cells
Experimental: (§1) Stimulation by endogenous RF-amide peptides or test compounds for [^35S]-GTPγS binding to membranes from CHO cells expressing human NPFF1R or NPFF2R, were examined as reported. 1.6. Glo-Sensor cAMP Assay cAMP accumulation assay was essentially done as described with the following modifications: HEK293 cells stably expressing cAMP Glosensor-20F were used, with or without additional stable expression of each individual opioid receptor or NPFF1R. The cAMP responses were measured in presence of D-luciferin (1 mM).

human KOPr [1] = target: T2, human KOPr (Homo sapiens, UniProt P41145); test: Glo-sensor cAMP assay; type: cell-based
T2 construct: expressed in transfected cells; HEK293-Glo20F cells (cAMP)
T2 sequence (P41145 whole entry): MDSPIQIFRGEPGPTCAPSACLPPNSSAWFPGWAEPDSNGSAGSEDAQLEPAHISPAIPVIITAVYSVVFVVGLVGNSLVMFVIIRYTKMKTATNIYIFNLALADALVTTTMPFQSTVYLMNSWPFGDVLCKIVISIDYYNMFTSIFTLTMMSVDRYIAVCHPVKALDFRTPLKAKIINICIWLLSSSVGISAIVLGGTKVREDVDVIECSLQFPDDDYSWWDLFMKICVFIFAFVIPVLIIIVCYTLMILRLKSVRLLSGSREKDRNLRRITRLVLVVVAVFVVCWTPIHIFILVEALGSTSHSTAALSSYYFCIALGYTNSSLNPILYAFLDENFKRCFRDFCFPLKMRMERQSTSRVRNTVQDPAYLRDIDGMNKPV
Experimental: as §1

human DOPr = target: T3, human DOPr (Homo sapiens, UniProt P41143); test: biochemical; type: binding
T3 construct: expressed in transfected cells; HEK293-Glo20F cells (cAMP)
T3 sequence (P41143 whole entry): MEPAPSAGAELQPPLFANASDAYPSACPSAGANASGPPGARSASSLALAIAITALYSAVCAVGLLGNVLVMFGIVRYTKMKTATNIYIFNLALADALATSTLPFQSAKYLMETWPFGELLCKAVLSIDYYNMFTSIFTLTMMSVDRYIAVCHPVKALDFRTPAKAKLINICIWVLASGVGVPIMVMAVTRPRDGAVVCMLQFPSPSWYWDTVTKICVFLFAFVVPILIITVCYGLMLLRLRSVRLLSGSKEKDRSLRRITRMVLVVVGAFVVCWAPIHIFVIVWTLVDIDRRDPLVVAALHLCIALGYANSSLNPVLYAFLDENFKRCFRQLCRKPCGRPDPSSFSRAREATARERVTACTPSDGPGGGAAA

C57BL/6N mice [2] = test: Tail immersion test after acute sc. administration; type: in vivo
Experimental: (§2) Animal experiments were performed on adult male C57BL/6N male mice (25-30 g weight; Janvier labs, France). Animals were housed in groups of three to five per cage and kept under a 12 h/12 h light/dark cycle at 21±1° C. with ad libitum access to food and water. Experiments were performed during the light-on phase of the cycle. Mice were habituated to the testing room and equipment before starting behavioral experiments. Control and treated group assignment as well as pain response measurements were performed in a blinded manner. Every animal was used only once. 1.11. Drug administration All drugs were dissolved in physiological saline (0.9%) and administered subcutaneously (sc.) at 10 mL/kg (volume/body weight). […] Assessment of thermal nociception The nociceptive sensitivity to thermal stimulation was determined in mice using the warm-water tail immersion tests as previously described [12; 49]. In the tail immersion test, C57BN/6N mice were restrained in a grid pocket and their tail was immersed in a thermostated water bath. […] For analgesic tolerance evaluation, nociceptive latencies were measured on day 1 and 8 according to the acute effect protocol. For the assessment of hyperalgesia, basal nociceptive latencies were measured every day, 30 min before drug or saline injection. Responses are expressed as latency times (in sec) of tail withdrawal from the hot water.

C57BL/6N mice [3] = test: CFA-induced inflammatory pain model; type: in vivo; settings: for CFA-induced thermal hypersensitivity (basal threshold): daily sc., measured before injection
Experimental: Tail inflammation in C57BL/6N mice was induced by injecting subcutaneously 20 μl of a Complete Freund's Adjuvant (CFA) solution or saline (control mice) 3 cm from the tip of the tail. Twenty-four hours after CFA injection (day 1), inflammation was confirmed by measuring thermal and mechanical hyperalgesia. Mice were then treated sc. daily for 7 days (from day 1 to day 7) with the test compounds or saline (control). Nociceptive threshold to heat stimulation was measured by tail immersion test (47.5±0.5° C.) and tail pressure test each hour for 5 h after the first drug administration in order to determine the peak of the anti-hyperalgesic response. During the following days, basal nociceptive thresholds were evaluated before injection and 2 h after drug injection. Antinociceptive response was calculated as percent of Maximum Possible Effect (% MPE) according to the formula=[(test latency−CFA/saline mice latency)/(cut-off time−CFA/saline mice latency)]×100. In order to limit behavioral sensitization, thermal nociception was evaluated on days 1-2-4-6 and mechanical nociception on days 1-3-5-7.

human KOPr [4] = target: T2, human KOPr; test: biochemical; type: binding; settings: [3H]-diprenorphine
GPR54 = target: T4, GPR54 (Homo sapiens, UniProt Q969F8); test: Radioligand competition binding with [125I]-Kp-10
T4 construct: expressed in transfected cells; host or cells: CHO cells, membranes
T4 sequence (Q969F8 whole entry): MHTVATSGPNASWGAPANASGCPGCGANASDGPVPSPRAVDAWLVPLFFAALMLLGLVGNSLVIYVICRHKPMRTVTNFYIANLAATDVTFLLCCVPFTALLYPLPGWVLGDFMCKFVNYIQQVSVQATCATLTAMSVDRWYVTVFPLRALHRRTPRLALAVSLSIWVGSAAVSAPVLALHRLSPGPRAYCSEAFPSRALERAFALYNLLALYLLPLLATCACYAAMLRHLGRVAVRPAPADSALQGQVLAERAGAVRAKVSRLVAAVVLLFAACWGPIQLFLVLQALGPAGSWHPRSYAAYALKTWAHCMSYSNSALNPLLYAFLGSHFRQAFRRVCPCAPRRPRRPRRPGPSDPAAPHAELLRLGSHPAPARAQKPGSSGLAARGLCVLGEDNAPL

GPR10 = target: T5, GPR10 (Homo sapiens, UniProt P49683); test: Radioligand competition binding with [3H]-PrRP-20
T5 construct: expressed in transfected cells; host or cells: CHO cells (gift from M. Parmentier, IRIBHM, Brussels), membranes
T5 sequence (P49683 1-370): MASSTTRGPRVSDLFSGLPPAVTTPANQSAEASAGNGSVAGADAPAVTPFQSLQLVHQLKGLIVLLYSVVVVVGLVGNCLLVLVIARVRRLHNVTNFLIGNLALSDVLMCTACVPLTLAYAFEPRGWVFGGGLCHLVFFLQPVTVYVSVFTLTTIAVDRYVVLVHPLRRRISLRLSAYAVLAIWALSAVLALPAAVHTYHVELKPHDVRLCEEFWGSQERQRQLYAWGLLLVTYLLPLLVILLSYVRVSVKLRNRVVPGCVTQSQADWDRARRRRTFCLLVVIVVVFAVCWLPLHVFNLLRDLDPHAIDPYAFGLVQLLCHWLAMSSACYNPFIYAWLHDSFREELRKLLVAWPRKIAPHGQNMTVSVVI

human MOPr = human MOPr (Homo sapiens, UniProt P35372); test: cell-based; type: cell-based; set-up: expressed in transfected cells; HEK293-Glo20F cells (cAMP); settings: for MOPr-induced G protein activation: in words; for Emax: read-out: MOPr (cAMP) Emax;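 for MOPr (cAMP) Emax: Emax relative to DAMGO as 100%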
Sequence of human MOPr (P35372 whole entry): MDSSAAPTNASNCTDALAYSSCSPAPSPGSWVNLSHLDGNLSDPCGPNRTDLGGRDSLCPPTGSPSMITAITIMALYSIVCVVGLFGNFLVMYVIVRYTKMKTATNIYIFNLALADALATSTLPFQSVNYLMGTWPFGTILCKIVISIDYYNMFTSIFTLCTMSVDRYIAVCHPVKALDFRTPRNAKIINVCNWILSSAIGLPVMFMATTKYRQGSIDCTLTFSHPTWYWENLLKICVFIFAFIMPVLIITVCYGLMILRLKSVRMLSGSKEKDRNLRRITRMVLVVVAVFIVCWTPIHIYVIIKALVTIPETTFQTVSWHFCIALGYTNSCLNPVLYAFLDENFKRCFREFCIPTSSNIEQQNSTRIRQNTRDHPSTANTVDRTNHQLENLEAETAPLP
Procedure, shortened: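 GTPγS binding used membranes of CHO cells expressing NPFF1R or NPFF2R, stimulated by RF-amide peptides or test compounds. cAMP was measured in HEK293 cells stably carrying Glosensor-20F, with or without stable expression of an opioid receptor or NPFF1R, in the presence of 1 mM D-luciferin.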

C57BL/6N mice [5] = test: Hyperalgesia and analgesic tolerance upon chronic sc. treatment, tail immersion test; type: in vivo; settings: for antinociceptive effect on day 1: equianalgesic sc. doses, 25 s cut-off; for basal thermal nociceptive threshold (development of hyperalgesia): chronic daily sc., compared with saline
Experimental: as §2, with “bath. The latency (in sec) for tail withdrawal from hot water (47.5±0.5° C.) was taken as a measure of the nociceptive response. In the absence of any nociceptive reaction, a cut-off value of 25 sec was set to avoid tissue damage. Experiments for chronic drug effects were designed according to a protocol enabling the evaluation of time-course of opioid-induced hyperalgesia and development of analgesic tolerance using the tail immersion test.” for “bath.”

NPFF2R = NPFF2R (Homo sapiens, UniProt Q9Y5X5); test: Radioligand competition binding with [125I]-1-DMe-NPFF; set-up: expressed in transfected cells; HEK293-Glo20F cells (cAMP)
Sequence of NPFF2R (Q9Y5X5 whole entry): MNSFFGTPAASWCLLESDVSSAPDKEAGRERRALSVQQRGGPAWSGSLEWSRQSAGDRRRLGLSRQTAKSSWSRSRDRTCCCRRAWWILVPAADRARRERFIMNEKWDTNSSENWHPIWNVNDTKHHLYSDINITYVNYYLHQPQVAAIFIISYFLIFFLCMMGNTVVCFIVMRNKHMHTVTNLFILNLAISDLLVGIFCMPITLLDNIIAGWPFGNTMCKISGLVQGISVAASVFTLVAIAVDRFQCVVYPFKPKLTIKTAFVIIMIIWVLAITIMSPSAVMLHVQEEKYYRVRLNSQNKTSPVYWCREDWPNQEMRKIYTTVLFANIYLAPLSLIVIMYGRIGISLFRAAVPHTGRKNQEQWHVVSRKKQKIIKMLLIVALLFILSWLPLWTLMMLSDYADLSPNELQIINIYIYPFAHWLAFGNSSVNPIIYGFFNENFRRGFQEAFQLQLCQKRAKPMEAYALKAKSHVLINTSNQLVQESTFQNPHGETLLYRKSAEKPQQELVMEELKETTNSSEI

human NPFF1R = human NPFF1R (Homo sapiens, UniProt Q9GZQ6); test: as above; set-up: expressed in transfected cells; HEK293-Glo20F cells (cAMP)
Sequence of human NPFF1R (Q9GZQ6 whole entry): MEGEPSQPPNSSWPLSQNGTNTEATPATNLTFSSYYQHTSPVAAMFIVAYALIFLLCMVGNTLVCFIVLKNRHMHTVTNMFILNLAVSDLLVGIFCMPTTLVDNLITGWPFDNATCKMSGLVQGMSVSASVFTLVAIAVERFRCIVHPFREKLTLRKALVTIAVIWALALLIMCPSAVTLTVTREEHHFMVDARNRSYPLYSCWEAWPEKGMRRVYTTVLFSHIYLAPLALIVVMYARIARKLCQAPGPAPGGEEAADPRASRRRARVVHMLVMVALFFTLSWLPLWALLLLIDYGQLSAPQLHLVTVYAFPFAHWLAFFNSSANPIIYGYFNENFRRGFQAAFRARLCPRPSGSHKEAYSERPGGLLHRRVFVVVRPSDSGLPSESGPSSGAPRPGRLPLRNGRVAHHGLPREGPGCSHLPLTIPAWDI

[6] = Table 3a, HEK293-Glo20F-hMOPr cells, read-out: MOPr (cAMP) EC50
[7] = [125I]-Kp-10, read-out: Ki ± SEM GPR54
[8] = [3H]-PrRP-20, read-out: Ki ± SEM GPR10

T1 sequence (P41146 whole entry): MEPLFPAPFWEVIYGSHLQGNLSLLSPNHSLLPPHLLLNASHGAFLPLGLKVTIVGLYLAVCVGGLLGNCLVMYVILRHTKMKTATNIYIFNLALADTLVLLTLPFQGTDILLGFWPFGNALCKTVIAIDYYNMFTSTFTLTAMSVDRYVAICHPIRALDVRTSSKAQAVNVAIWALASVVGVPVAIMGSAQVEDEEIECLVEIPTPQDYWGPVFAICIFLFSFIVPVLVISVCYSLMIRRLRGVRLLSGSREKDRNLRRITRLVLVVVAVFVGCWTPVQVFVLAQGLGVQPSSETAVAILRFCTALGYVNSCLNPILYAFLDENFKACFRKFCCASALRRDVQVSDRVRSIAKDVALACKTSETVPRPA

Compound: Cc1cc(O)cc(C)c1C[C@H](N)C(=O)N[C@H](CCCNC(=N)N)C(=O)N[C@H]1Cc2ccccc2CN(CCC(=O)N[C@@H](CCCNC(=N)N)C(=O)N[C@@H](Cc2ccccc2)C(N)=O)C1=O [KGFF03, H-Dmt-D-Arg-Aba-β-Ala-Arg-Phe-NH2] (HELM PEPTIDE1{[Cc1cc(O)cc(C)c1C[C@H](N)C(=O)[*:2]].[dR].[O=C1[C@@H](N[*:1])Cc2ccccc2CN1CCC(=O)[*:2]].R.F.[am]}$$$$V2.0)
- Emax (human NOPr): 15 ± 2%
- Kb (human NOPr): 5010 nM
- EC50 (human KOPr [1]): 95 nM
- Emax (human KOPr [1]): 34 ± 11%
- Ki (human DOPr): 9.1 ± 0.7 nM
- potency in inducing antinociception compared to KGOP01 (C57BL/6N mice [2]): equipotent
- CFA-induced thermal hypersensitivity (basal threshold) (C57BL/6N mice [3]): not the case
- Ki (human KOPr [4]): 108 ± 28 nM
- Ki (GPR54): 4370 nM
- Ki (GPR10): > 10000 nM
- EC50 (human MOPr; [6]): 12 ± 2 nM
- MOPr-induced G protein activation (human MOPr): highly potent and fully efficacious
- Emax (human MOPr): 92 ± 1%
- antinociceptive effect on day 1 (C57BL/6N mice [5]): full antinociception

Compound: Cc1cc(O)cc(C)c1C[C@H](N)C(=O)N[C@H](CCCNC(=N)N)C(=O)N[C@H]1Cc2ccccc2CN(CCC(=O)N[C@@H](CCCN2CCC(Cc3ccccc3)CC2)C(=O)N[C@@H](Cc2ccccc2)C(N)=O)C1=O [KGFF09, H-Dmt-D-Arg-Aba-β-Ala-Bpa-Phe-NH2]
- EC50 (human NOPr): > 10000 nM
- Emax (human NOPr): 7 ± 3%
- Kb (human NOPr; read-out: pA2, antagonist activity at the NOPr (converted)): 1150 nM
- Emax (human KOPr [1]): 15 ± 1%
- Ki (human DOPr): 186 ± 77 nM
- potency in inducing antinociception compared to KGOP01 (C57BL/6N mice [2]): 4.5 fold less potent
- CFA-induced thermal hypersensitivity (basal threshold) (C57BL/6N mice [3]): totally reversed after the third injection
- analgesic tolerance after 7 days of chronic administration (C57BL/6N mice [3]; in words): significantly less tolerance
- Ki (GPR54; [7]): 2000 nM
- Ki (GPR10; [8]): > 10000 nM
- EC50 (human MOPr; Table 3B, read-out: MOPr (cAMP) EC50): 18.2 ± 6.1 nM
- EC50 (human MOPr; [6]): 18.2 ± 6.1 nM
- MOPr-induced G protein activation (human MOPr): highly potent and fully efficacious
- Emax (human MOPr): 85 ± 2%
- basal thermal nociceptive threshold (development of hyperalgesia) (C57BL/6N mice [5]): absent
- decrease in antinociception efficacy (AUC) on day 8 compared to day 1 (C57BL/6N mice [5]; daily sc. d1-d8, KGOP01 1.8, KGFF03 1.2, KGFF09 7.4 μmol/kg/d): less than 25%
- antinociceptive effect on day 1 (C57BL/6N mice [5]): full antinociception

Compound: Cc1cc(O)cc(C)c1C[C@H](N)C(=O)N[C@H](CCCNC(=N)N)C(=O)N[C@H]1Cc2ccccc2CN(CCC(N)=O)C1=O [KGOP01, reference compound]
- Emax (human KOPr [1]): 18 ± 1%
- EC50 (human KOPr [1]; read-out: KOPr (cAMP) EC50): > 10000 nM
- Ki (human DOPr): 5.1 ± 0.5 nM
- Ki (NPFF2R): 4500 nM
- Ki (human NPFF1R): 4600 nM
- CFA-induced thermal hypersensitivity (basal threshold) (C57BL/6N mice [3]): not the case
- Ki (human KOPr [4]): 37.3 ± 9.6 nM
- Ki (GPR54; [7]): > 10000 nM
- Ki (GPR10; [8]): > 10000 nM
- EC50 (human MOPr; MOPr (cAMP) EC50): 0.204 ± 0.05 nM
- Emax (human MOPr): 89 ± 2%
- basal thermal nociceptive threshold (development of hyperalgesia) (C57BL/6N mice [5]): significant and progressive decrease
- antinociceptive effect on day 1 (C57BL/6N mice [5]): full antinociception
